Data as given in patent EP3628659A1, “SELENOESTER-CONTAINING COMPOUNDS FOR USE IN THE TREATMENT OF MICROBIAL INFECTIONS OR COLORECTAL CANCER” (Consejo Superior De Investigaciones Científicas, priority 2018, dated 2020).
Where two headings read alike, the source gives them in different places.

Assays:
[1] = tested on: Colo 205 doxorubicin-sensitive; assay: Cytotoxicity assay (MTT) in Colo 205 cells; assay type: cell-based, human; details: for IC50: Homo sapiens, COLO 205, 24 h, read-out: Colo 205 Cytotoxicity; for SI (MRC-5/Colo205): quotient of IC50 in MRC-5 and IC50 in Colo-205
Experimental: Cytotoxicity assays in human colonic adenocarcinoma cell lines Colo 205 doxorubicin-sensitive (ATCC-CCL-222) and Colo 320/MDR-LRP multidrug resistant overexpressing ABCB1 (MDR1)-LRP (ATCC-CCL-220.1) were performed following the procedure described by Gajdács et al, 2017, Bioorg Med Chem Lett. 27(4): 797-802. The effects of increasing concentrations of selenium compounds on cell growth were tested in 96-well flat-bottomed microtiter plates. The selectivity of the action towards cancer cells was assessed through the evaluation of cytotoxic activity in a non-tumoral cell line, the MRC-5 human embryonal lung fibroblast cell lines (ATCC CCL-171), as described in Gajdács et al, 2017, Bioorg Med Chem Lett. 27(4): 797-802.
All cell lines were purchased from LGC Promochem, Teddington, UK. The colonic cells were cultured in RPMI 1640 medium supplemented with 10% heat-inactivated fetal bovine serum, 2 mM L-glutamine, 1 mM Na-pyruvate and 100 mM Hepes. The cell lines were incubated at 37°C, in a 5% CO2, 95% air atmosphere. The semi-adherent human colon cancer cells were detached with Trypsin-Versene (EDTA) solution for 5 min at 37°C. Alternatively, MRC-5 cells was cultured in Eagle's Minimal Essential Medium (EMEM, containing 4.5 g/L glucose) supplemented with a non-essential amino acid mixture, a selection of vitamins and 10% heat-inactivated fetal bovine serum. The cell lines were incubated at 37°C, in a 5% CO2, 95% air atmosphere.
The compounds were diluted in a volume of 100 µL of medium. The two-fold serial dilutions of selenocompounds were prepared in 100 µL of RPMI 1640, horizontally. The semi-adherent colonic adenocarcinoma cells were treated with Trypsin-Versene (EDTA) solution. They were adjusted to a density of 2×10^4 cells in 100 µL of RPMI 1640 medium, and were added to each well, with the exception of the medium control wells. The final volume of the wells containing selenocompounds and cells was 200 µL.
The culture plates were incubated at 37°C for 24 h; at the end of the incubation period, 20 µL of MTT (thiazolyl blue tetrazolium bromide, Sigma) solution (from a stock solution of 5 mg/mL) were added to each well. After incubation at 37°C for 4 h, 100 µL of sodium dodecyl sulfate (SDS) (Sigma) solution (10% in 0.01 M HCI) were added to each well and the plates were further incubated at 37°C overnight. Cell growth was determined by measuring the optical density (OD) at 540/630 nm with Multiscan EX ELISA reader (Thermo Labsystems, Cheshire, WA, USA). Inhibition of the cell growth was determined according to the formula below: […] = 100−[(OD sample−OD medium control)/(OD cell control−OD medium control)] × 100 [formula]
Results are expressed in terms of IC50, defined as the inhibitory dose that reduces the growth of the cells exposed to the tested compounds by 50%. Regarding the selectivity, the selectivity indexes (SI) were calculate, being SI the quotient of the IC50 in non-tumoral cells (MRC-5) and the respective cancer cell (Colo-205 or Colo-320). Compound is considered moderately selective when SI < 6 and ≥ 3; and strongly selective when SI ≥ 6.

Escherichia coli AG100 A = assay: MIC determination (CLSI), E. coli AG100 A; assay type: cell-based; details: MIC class
Experimental: The effects exerted by different concentrations of the compounds on bacterial growth in Staphylococcus aureus 25923 ATCC, Staphylococcus aureus multidrug resistant 272123 clinical isolate (MRSA), Escherichia coli AG100 or Escherichia coli AG100 A were tested in 96-well plates. The MIC of selenocompounds was determined according to Clinical and Laboratory Standard Institute (CLSI) guidelines. The solvent used (DMSO) had no antibacterial effect. Alternatively, the MICs of oxacillin of the compounds in MRSA HEMSA 5 were determined by a broth microdilution method in cation-adjusted Mueller-Hinton Broth (MHB II) according to the recommendations of the CLSI. Results were recorded after a 20- or 24-hour incubation at 37°C.

Saccharomyces cerevisiae = assay: Antifungal activity (optical density), Saccharomyces cerevisiae; assay type: cell-based
Experimental: The compounds were tested for their antifungal and nematicidal properties against the fungi Candida albicans and Saccharomyces cerevisiae, and against the nematode Steinernema feltiae.
Fungal cell densities were determined by measuring the optical density (OD) at 570 nm at 0 h (first measurement immediately after incubation), 4 h, and 24 h after incubation at 37 °C; and using a Universal Microplate Reader, EL800, Biotech Instruments, Inc. Highland Park, Winooski, VT, USA. Compounds were dissolved in 1% DMSO and were tested at final concentrations of 50, 100, 150, and 200 µM. Nutrient Sabouraud Dextrose (SD), and Yeast Peptone Dextrose (YPD) were used as media for C. albicans, and S. cerevisiae, respectively. Ketoconazole was used as the positive control for C. albicans and S. cerevisiae. The growth culture with medium for each organism was used as the negative control. The Solvent 1% DMSO stock was used as a solvent control. All experiments were carried out in triplicate and on three different occasions (n = 9).
For the three organisms considered (C. albicans, S. cerevisiae and S. feltiae), the inhibitory concentration 50% (IC50) is defined as the concentration that inhibits the viability of the respective organism to a 50% of the viability determined for the negative control.

[2] = read-out: Antifungal activity Saccharomyces cerevisiae, IC50 class, tested at 50, 100, 150 and 200 µM, OD 570 nm, 37 °C, read-out: Antifungal activity Streptomyces cerevisiae

Structure (SMILES)	IC50 [1]	SI (MRC-5/Colo205) [1]	Antibacterial activity Against E. coli AG100 A (Escherichia coli AG100 A)	IC50 (Saccharomyces cerevisiae; [2])	IC50 (Saccharomyces cerevisiae; read-out: Antifungal activity Saccharomyces cerevisiae)
N#CC[Se]C(=O)c1ccc(C(=O)[Se]CC#N)cc1 [Compound 18, Se,Se-bis-(cyanomethyl) benzene-1,4-bis-(carboselenoate)]	1 to 10 µM	*** (Strongly selective compounds: SI ≥ 6)	** (Moderate antibacterial compounds: 10 µM < MIC ≤ 50 µM)	> 100 µM	
N#CC[Se]C(=O)c1cccc(C(=O)[Se]CC#N)c1 [Compound 19, Se,Se-bis-(cyanomethyl)benzene-1,3-bis-(carboselenoate)]	1 to 10 µM	*** (Strongly selective compounds: SI ≥ 6)	NA (Not antibacterial compounds: MIC ≥ 100 µM)		10 to 50 µM
N#CC[Se]C(=O)c1cc(C(=O)[Se]CC#N)cc(C(=O)[Se]CC#N)c1 [Compound 20, Se,Se,Se-tris-(cyanomethyl) benzene-1,3,5-tris-(carboxyselenoate)]	< 1 µM	*** (Strongly selective compounds: SI ≥ 6)	NA (Not antibacterial compounds: MIC ≥ 100 µM)	10 to 50 µM	
CC(=O)C[Se]C(=O)c1ccc(C(=O)[Se]CC(C)=O)cc1 [Compound 22, Se,Se-bis-(2-oxopropyl) benzene-1,4-bis-(carboselenoate)]	< 1 µM	* (Slightly selective compounds: 1 ≤ SI < 3)	** (Moderate antibacterial compounds: 10 µM < MIC ≤ 50 µM)	50 to 100 µM	
CC(=O)C[Se]C(=O)c1cccc(C(=O)[Se]CC(C)=O)c1 [Compound 23, Se,Se-bis-(2-oxopropyl) benzene-1,3-bis-(carboselenoate)]	< 1 µM	* (Slightly selective compounds: 1 ≤ SI < 3)	** (Moderate antibacterial compounds: 10 µM < MIC ≤ 50 µM)	> 100 µM	
CC(=O)C[Se]C(=O)c1cc(C(=O)[Se]CC(C)=O)cc(C(=O)[Se]CC(C)=O)c1 [Compound 24, Se,Se,Se-tris-(2-oxopropyl) benzene-1,3,5-tris-(carboxyselenoate)]	< 1 µM	* (Slightly selective compounds: 1 ≤ SI < 3)	** (Moderate antibacterial compounds: 10 µM < MIC ≤ 50 µM)	> 100 µM	
